In brackets after ≈: the same amount, converted by molar mass.
Columns and labels:
[1] = target: human GPR40 receptor (Homo sapiens (Human), UniProt O14842); assay: IP1 accumulation measurements using the IPOne assay system; format: cell-based; conditions: 1321N1 cells stably expressing human GPR40, 1 h at 37° C.
Procedure: IP1 accumulation measurements using the IPOne assay system—1321N1 cells stably expressing human GPR40 receptor (Euroscreen, Belgium) are seeded 24 h before the assay in white 384-well plates in culture medium containing 10% FCS, 1% Na-Pyruvate and 400 μg/mL G418. IP1 is assayed according to the manufacturer's description (Cisbio Bioassays, France). In brief, the assay is started by substitution of the culture medium by stimulation buffer (Hepes 10 mM, CaCl2 1 mM, MgCl2 0.5 mM, KCl 4.2 mM, NaCl 146 mM, glucose 5.5 mM and LiCl 50 mM, pH 7.4). Cells are stimulated for 1 h at 37° C., 5% CO2 by addition of the compounds that are diluted in stimulation buffer containing LiCl. Assays are stopped by adding HTRF-conjugates (IP1-d2 and Anti-IP1 cryptate Tb) and lysis buffer, provided by the manufacturer. After an incubation time of 1 h at room temperature plates are measured using an EnVision™, Perkin Elmer. The obtained fluorescence ratios at 665/615 […] are then used to calculate the pEC50 values using Assay Explorer 3.3 Software (Accelrys, Inc.) by interpolation using an IP1 reference curve and subsequent sigmoidal curve fitting allowing for a variable hill slope.

[2] = Aqueous solubility (buffer vs acetonitrile/water, LC-UV); format: physicochemical; conditions: aqueous buffer, kinetic from dmso stock, pH 2.2 buffer, 24 h shaking, 2.5% DMSO
Procedure: The aqueous solubility of the compounds of the invention is determined by comparing the amount dissolved in buffer to the amount in an acetonitrile/water (1/1) solution. Starting from a 10 mM DMSO stock solution aliquots are diluted with acetonitrile/water (1/1) or buffer, respectively. After 24 h of shaking, the solutions are filtrated and analyzed by LC-UV. The amount dissolved in buffer is compared to the amount in the acetonitrile solution.

[3] = reference examples of WO 2013/178575

Sequence of human GPR40 receptor (O14842 whole entry): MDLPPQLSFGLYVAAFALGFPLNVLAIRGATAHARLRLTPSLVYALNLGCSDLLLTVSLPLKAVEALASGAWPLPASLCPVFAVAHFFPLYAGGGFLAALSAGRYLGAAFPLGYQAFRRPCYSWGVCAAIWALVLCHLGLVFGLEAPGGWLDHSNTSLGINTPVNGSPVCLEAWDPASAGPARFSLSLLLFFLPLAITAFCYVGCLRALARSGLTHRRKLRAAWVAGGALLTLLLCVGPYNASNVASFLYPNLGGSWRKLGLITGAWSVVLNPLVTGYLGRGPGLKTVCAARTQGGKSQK

| SMILES | EC50 [1] [nM] | solubility at 24 h ([2]; examples in this invention) [µg/mL] | solubility at 24 h [2, 3] [µg/mL] |
| --- | --- | --- | --- |
| Cc1cc(OCCCS(C)(=O)=O)cc(C)c1-c1cccc(CNc2ccc([C@H]3CC3C(=O)O)nc2)c1 (stereo partly drawn) [Example 1] | 50 | 83 (≈ 163 µM) | – |
| CC(C)(O)CCOc1ccc(-c2cc(CNc3ccc([C@H]4C[C@@H]4C(=O)O)nc3)ccc2C(F)(F)F)cc1 [Example 2, (1S,2S)-2-(5-{[4′-(3-Hydroxy-3-methyl-butoxy)-6-trifluoromethyl-biphenyl-3-ylmethyl]-amino}-pyridin-2-yl)-cyclopropanecarboxylic acid] | 17 | 72 (≈ 140 µM) | – |
| O=C(O)[C@H]1C[C@@H]1c1ccc(NCc2ccc(C(F)(F)F)c(-c3ccc(OCC4CC4)cc3)c2)cn1 [Example 3, (1S,2S)-2-{5-[(4′-Cyclopropylmethoxy-6-trifluoromethyl-biphenyl-3-ylmethyl)-amino]-pyridin-2-yl}-cyclopropanecarboxylic acid] | 22 | 22 (≈ 45.6 µM) | – |
| O=C(O)[C@H]1C[C@@H]1c1ccc(NCc2ccc(C(F)(F)F)c(-c3ccc(OC(F)(F)F)cc3)c2)cn1 [Example 4, (1S,2S)-2-{5-[(4′-Trifluoromethoxy-6-trifluoromethyl-biphenyl-3-ylmethyl)-amino]-pyridin-2-yl}-cyclopropanecarboxylic acid] | 44 | 14 (≈ 28.2 µM) | – |
| Cc1cc(OCCC(C)(C)O)cc(C)c1-c1cc(CNc2ccc([C@H]3C[C@@H]3C(=O)O)nc2)ccc1C(F)(F)F [Example 5] | 12 | < 1 | – |
| COc1ccc(-c2ccc(-c3cc(CNc4ccc([C@H]5C[C@@H]5C(=O)O)nc4)c(F)cc3F)cc2)nn1 [Example 6, (1S,2S)-2-(5-{[4,6-Difluoro-4′-(6-methoxy-pyridazin-3-yl)-biphenyl-3-ylmethyl]-amino}-pyridin-2-yl)-cyclopropanecarboxylic acid] | 64 | 56 (≈ 115 µM) | – |
| COc1ccc(-c2ccc(-c3cc(CNc4ccc([C@H]5C[C@@H]5C(=O)O)nc4)c(F)cc3F)cc2)nc1 [Example 7, (1S,2S)-2-(5-{[4,6-Difluoro-4′-(5-methoxy-pyridin-2-yl)-biphenyl-3-ylmethyl]-amino}-pyridin-2-yl)-cyclopropanecarboxylic acid] | 27 | 77 (≈ 158 µM) | – |
| Cc1cc(N)ccc1-c1cc(CNc2ccc([C@H]3C[C@@H]3C(=O)O)nc2)c(F)cc1F [Example 8, (1S,2S)-2-{5-[(4′-Amino-4,6-difluoro-2′-methyl-biphenyl-3-ylmethyl)-amino]-pyridin-2-yl}-cyclopropanecarboxylic acid] | 127 | > 96 | – |
| O=C(O)[C@H]1C[C@@H]1c1ccc(NCc2cc(-c3ccc(O)c(Cl)c3)c(F)cc2F)cn1 [Example 9, (1S,2S)-2-{5-[(3′-Chloro-4,6-difluoro-4′-hydroxy-biphenyl-3-ylmethyl)-amino]-pyridin-2-yl}-cyclopropanecarboxylic acid] | 943 | 58 (≈ 135 µM) | – |
| COc1c(F)cc(-c2cc(CNc3ccc([C@H]4C[C@@H]4C(=O)O)nc3)c(F)cc2F)cc1F [Example 10, (1S,2S)-2-{5-[(4,6,3′,5′-Tetrafluoro-4′-methoxy-biphenyl-3-ylmethyl)-amino]-pyridin-2-yl}-cyclopropanecarboxylic acid] | 52 | 61 (≈ 137 µM) | – |
| Cc1cc(C(=O)NCC(C)(C)O)cc(C)c1-c1ccc(F)c2c1CC[C@H]2Oc1ccc([C@H]2C[C@@H]2C(=O)O)cc1 [WO 2013/178575 Example 15, reference compound] | – | – | < 1 |
| Cc1cc(OCCC(C)(C)O)cc(C)c1-c1ccc(F)c2c1CC[C@H]2Oc1ccc([C@H]2C[C@@H]2C(=O)O)cc1 [WO 2013/178575 Example 17, reference compound] | – | – | < 1 |
| Cc1cc(-c2nnn(C)n2)cc(C)c1-c1ccc(F)c2c1CC[C@H]2Oc1ccc([C@H]2C[C@@H]2C(=O)O)cc1 [WO 2013/178575 Example 45, reference compound] | – | – | < 1 |
| Cc1c(C#N)cccc1-c1ccc(F)c2c1CC[C@H]2Oc1ccc([C@H]2C[C@@H]2C(=O)O)cc1 [WO 2013/178575 Example 54, reference compound] | – | – | < 1 |
